Data on 5 compounds can be found in US12495798B2, “Nicotinamide compound and herbicidal composition comprising compound” (KOREA RESEARCH INSTITUTE OF CHEMICAL TECHNOLOGY, priority 2019, dated 2025).

Holding throughout (format): in vivo
One data set has as its system sorghum. As to the kind of experiment: Herbicidal activity test against upland field weeds (foliar treatment test). Further details: key to Foliar treatment herbicidal activity, Sorghum: 0 (no control); 100 (complete control). To be noted: 50 g ai/ha, scale 0-100; for plant injury at 50 g/ha: Sorghum. Here is the method: (§1) Experimental Example 1: Herbicidal Activity Test Against Upland Field Weeds (Foliar Treatment Test) Foliar treatment was performed as follows: After filling a square plastic pot having a surface area of 350 cm^2 with horticultural soil, seeds (10˜15 grains) or rootstocks (2 pieces) of 5 kinds of grassy weeds of sorghum, barnyard grass, quack grass, crabgrass, fall panicum, and 5 kinds of broadleaf weeds of black nightshade, indian jointvetch, velvetleaf, cocklebur, bindweed, which had been stored in a low temperature (6° C.), were sown. After growing for a certain period in greenhouse conditions (average temperature 30±5° C., light/dark=14/10 hours), test compound solutions were made by diluting with a preparation solution (including 50% acetone, 0.1% Tween-20) so that the final treatment amount of the test compounds was 50 or 75 g a.i./ha. The prepared test compound solution was used for treating foliage by hand-spraying 14 mL per pot in a fume hood. After the treatment, it was managed under the same greenhouse conditions as above, and after 14 days (after 21 days if necessary), the external symptoms and efficacy were investigated according to the scale of 0 (no control) to 100 (complete control). The results of Table 7 were obtained by evaluating weed control value to the untreated control by conducting visual assessment.

A further data set has as its system barnyard grass. The data set is described as above. As to conditions: 50 g ai/ha, scale 0-100; for pest or weed control at 50 g/ha: Echinochloa crus-galli. On the set-up: key to Foliar treatment herbicidal activity, barnyard grass: 0 (no control); 100 (complete control). Here is the method:
as §1

Another data set deals with quack grass. The data set is described as above. Further details: key to Foliar treatment herbicidal activity, quack grass: 0 (no control); 100 (complete control). As to conditions: 50 g ai/ha, scale 0-100. Here is the method: as §1
A further data set relates to crabgrass. The description is as above. Further details: key to Foliar treatment herbicidal activity, Crabgrass: 0 (no control); 100 (complete control). As to conditions: 50 g ai/ha, scale 0-100; for pest or weed control at 50 g/ha: Digitaria sanguinalis. Here is the method:
as §1

The next data set relates to fall panicum. The description is as above. To be noted: Panicum dichotomiflorum, 50 g ai/ha, scale 0-100. Here is the method: as §1
The next data set deals with black nightshade. The data set is described as above. On the set-up: key to Foliar treatment herbicidal activity, black nightshade: 0 (no control); 100 (complete control). To be noted: 50 g ai/ha, scale 0-100. Here is the method: as §1
For a further data set, the system named is indian jointvetch. The data set is described as above. To be noted: 50 g ai/ha, scale 0-100. Here is the method:
as §1

A further data set has as its system velvetleaf. The description is as above. As to conditions: Abutilon theophrasti, 50 g ai/ha, scale 0-100, read-out: Foliar treatment herbicidal activity, velvet leaf. Here is the method: as §1
Another data set concerns cocklebur. The data set is described as above. To be noted: Xanthium strumarium, 50 g ai/ha, scale 0-100. Here is the method: as §1
Another data set has as its system bindweed. The data set is described as above. As to conditions: 50 g ai/ha, scale 0-100. Here is the method: as §1
In another data set the test system is corn. In words: Phytotoxicity test for upland field crops (foliar treatment test). On the set-up: key: 0 (no harm); 9 (complete withered). Here is the method:
(§2) Experimental Example 3: Phytotoxicity Test for Upland Field Crops (Foliar Treatment Test)
(§3) Foliar treatment was performed for grown crops and weeds in a square plastic pot having a surface area of 50 cm^2 filled with horticultural soil. As a fertilizer per pot, 0.5 g of horticultural mixed fertilizer (N:P:K=17:21:17) was treated by mixing in the upper soil. Five kinds of crops such as rice, wheat, corn, soybean, and cotton were sown in each pot, and after growing for a certain period in greenhouse conditions (average temperature 30±5° C., light/dark=14/10 hours), test compound solutions were made by diluting with the diluent (33% acetone, 0.1% Tween-20) so that the final treatment amount of the test compounds was 19˜300 g a.i./ha. The prepared test compound solutions were treated using a spray booth (SB6-016) at a treatment amount of 100 ml per 1 m^2 of treatment area. The treated plants were managed under the same greenhouse conditions as above, and external symptoms and phytotoxicity were investigated 7 and 14 days after treatment (after 21 days if necessary). In the evaluation of the phytotoxicity for the crop, the grade of 0 (no harm) to 9 (complete withered) was used. The results of Table 9 were obtained by evaluating crop phytotoxicity value to the untreated control.

The next data set concerns wheat. Described as above. On the set-up: key: 0 (no harm); 9 (complete withered). Here is the method: as §2, §3
Setting [1] is: 50 g ai/ha, Corn (7 days after treatment).
Setting [2] is: 50 g ai/ha, Corn (14 days after treatment).
[3] abbreviates: 100 g ai/ha, Corn (7 days after treatment).
Setting [4] is: 100 g ai/ha, Corn (14 days after treatment).
[5] abbreviates: 50 g ai/ha, Wheat (7 days after treatment).
The mark [6] stands for this setting: 50 g ai/ha, Wheat (14 days after treatment).
Where [7] appears, read: 100 g ai/ha, Wheat (7 days after treatment).
[8] abbreviates: 100 g ai/ha, Wheat (14 days after treatment).

Turning to `CCn1nnc(COCc2nc(C(F)(F)F)ccc2C(=O)Nc2nnnn2C)n1` [Compound No. 2-87, 2-(((2-ethyl-2H-tetrazol-5-yl)methoxy)methyl)-N-(1-methyl-1H-tetrazol-5-yl)-6-(trifluoromethyl)nicotinamide], the “Foliar treatment herbicidal activity, Sorghum” value in the data set with sorghum amounted to 0. The pest or weed control at 50 g/ha stood at 10% in the data set with barnyard grass; 40% in the data set with fall panicum; 98% in the data set on black nightshade (Solanum nigrum); 20% in the data set on indian jointvetch; 70% in the data set on velvetleaf; 60% in the data set with cocklebur. This compound displayed a pest or weed control at 50 g/ha in the data set with bindweed of 80%. Also, in the data set with quack grass, the “Foliar treatment herbicidal activity, quack grass” value came out at 0. In the data set on crabgrass, the “Foliar treatment herbicidal activity, Crabgrass” value came to 0. The “Foliar treatment phytotoxicity, Corn” value in the data set on corn (setting [1]), with corn (setting [2]), with corn (setting [3]) and in the data set on corn (setting [4]) was 0 each time. Also, the “Foliar treatment phytotoxicity, Wheat” value in the data set on wheat (setting [5]), in the data set with wheat (setting [6]), with wheat (setting [7]) and in the data set on wheat (setting [8]) was 0 each time.
`CCn1nnc(COCc2nc(C(F)(F)F)ccc2C(=O)Nc2nnnn2CC)n1` [Compound No. 2-88, N-(1-ethyl-1H-tetrazol-5-yl)-2-(((2-ethyl-2H-tetrazol-5-yl)methoxy)methyl)-6-(trifluoromethyl)nicotinamide]: the “Foliar treatment herbicidal activity, Sorghum” value in the data set on sorghum is reported as 0. Besides, the “Foliar treatment herbicidal activity, barnyard grass” value with barnyard grass was 0. For the same compound, in the data set with quack grass, the “Foliar treatment herbicidal activity, quack grass” value is reported as 0. The pest or weed control at 50 g/ha with crabgrass stood at 20%; in the data set on fall panicum it was 40%; with indian jointvetch it was 60%; in the data set on velvetleaf, 70%; with cocklebur, 70%; in the data set with bindweed it was 70%. Moreover, the “Foliar treatment herbicidal activity, black nightshade” value with black nightshade is reported as 100. The “Foliar treatment phytotoxicity, Corn” value in the data set on corn (setting [1]), in the data set on corn (setting [2]), with corn (setting [3]) and with corn (setting [4]) was 0 in each case. In addition, the “Foliar treatment phytotoxicity, Wheat” value in the data set on wheat (setting [5]), with wheat (setting [6]), in the data set on wheat (setting [7]) and with wheat (setting [8]) was 0 throughout.
The compound `CCCn1nnnc1NC(=O)c1ccc(C(F)(F)F)nc1COCc1nnn(CC)n1` [Compound No. 2-89, 2-(((2-ethyl-2H-tetrazol-5-yl)methoxy)methyl)-N-(1-propyl-1H-tetrazol-5-yl)-6-(trifluoromethyl)nicotinamide] had a plant injury at 50 g/ha with sorghum of 50%. For the same compound, the pest or weed control at 50 g/ha in the data set with barnyard grass is 95%; in the data set with crabgrass, 60%; in the data set on fall panicum, 90%; with indian jointvetch, 40%; in the data set on velvetleaf it was 50%; in the data set on cocklebur it was 90%. In the data set with bindweed, this compound registered a pest or weed control at 50 g/ha of 70%. The “Foliar treatment herbicidal activity, quack grass” value in the data set on quack grass worked out at 0. Moreover, the “Foliar treatment herbicidal activity, black nightshade” value in the data set with black nightshade is listed as 100. Also, the “Foliar treatment phytotoxicity, Corn” value in the data set with corn (setting [1]), in the data set on corn (setting [2]), in the data set with corn (setting [3]) and with corn (setting [4]) was 0 each time. The “Foliar treatment phytotoxicity, Wheat” value with wheat (setting [5]), with wheat (setting [6]), with wheat (setting [7]) and in the data set on wheat (setting [8]) was 0 throughout.
As for `C=CCn1nnnc1NC(=O)c1ccc(C(F)(F)F)nc1COCc1nnn(CC)n1` [Compound No. 2-90, N-(1-allyl-1H-tetrazol-5-yl)-2-(((2-ethyl-2H-tetrazol-5-yl)methoxy)methyl)-6-(trifluoromethyl)nicotinamide], the plant injury at 50 g/ha in the data set with sorghum was determined as 20%. Moreover, the pest or weed control at 50 g/ha came out at 98% in the data set with barnyard grass; 70% in the data set with crabgrass; 60% in the data set on fall panicum; 80% in the data set with indian jointvetch; 98% with velvetleaf; 70% in the data set with cocklebur. The pest or weed control at 50 g/ha with bindweed is 70%. Moreover, in the data set with quack grass, the “Foliar treatment herbicidal activity, quack grass” value worked out at 0. Besides, the “Foliar treatment herbicidal activity, black nightshade” value in the data set with black nightshade is given as 100. Further, the “Foliar treatment phytotoxicity, Corn” value in the data set with corn (setting [1]), in the data set on corn (setting [2]), in the data set with corn (setting [3]) and in the data set on corn (setting [4]) was 0 each time. For the same compound, the “Foliar treatment phytotoxicity, Wheat” value in the data set with wheat (setting [5]), in the data set on wheat (setting [6]), in the data set on wheat (setting [7]) and in the data set on wheat (setting [8]) was 0 in each case.
Compound `COCn1nnc(COCc2nc(C(F)(F)F)ccc2C(=O)Nc2nnnn2C)n1` [Compound No. 2-91, 2-(((2-(methoxymethyl)-2H-tetrazol-5-yl)methoxy)methyl)-N-(1-methyl-1H-tetrazol-5-yl)-6-(trifluoromethyl)nicotinamide] showed a plant injury at 50 g/ha in the data set on sorghum of 50%. In addition, the pest or weed control at 50 g/ha is 80% with barnyard grass; 90% with crabgrass; 70% in the data set with fall panicum; 95% in the data set on indian jointvetch; 98% with velvetleaf; 98% in the data set on cocklebur. In addition, the pest or weed control at 50 g/ha in the data set on bindweed amounted to 70%. In addition, the “Foliar treatment herbicidal activity, quack grass” value in the data set on quack grass stood at 0. Further, the “Foliar treatment herbicidal activity, black nightshade” value with black nightshade was determined as 100. Moreover, the “Foliar treatment phytotoxicity, Corn” value with corn (setting [1]) is listed as 2; in the data set on corn (setting [2]), 1; in the data set with corn (setting [3]) it was 3; with corn (setting [4]) it was 3. For the same compound, the “Foliar treatment phytotoxicity, Wheat” value with wheat (setting [5]), with wheat (setting [6]), in the data set with wheat (setting [7]) and in the data set with wheat (setting [8]) was 0 each time.

As usually defined, the plant injury is how far the test organism was held down.
